Assay results published in patent publication US9586952B2, “Polycyclic estrogen receptor modulators and uses thereof” (SERAGON PHARMACEUTICALS, INC., priority 2013, dated 2017).

How the values were obtained:
ER-α = biological target: T1, ER-α (Homo sapiens, UniProt P03372); test: Breast Cancer Cell ER-α In Cell Western Assay (SP1); assay type: cell-based; conditions: MCF-7 cells, 4 or 24 hr post compound addition, SP1 antibody; for Emax: MCF7, read-out: ER-α In Cell Western Assay (SP1) Max Response; for DC50: read-out: ER-α In Cell Western Assay (SP1) IC50
T1 construct: endogenous in cells; host or cells: MCF-7
T1 sequence (P03372 1-595): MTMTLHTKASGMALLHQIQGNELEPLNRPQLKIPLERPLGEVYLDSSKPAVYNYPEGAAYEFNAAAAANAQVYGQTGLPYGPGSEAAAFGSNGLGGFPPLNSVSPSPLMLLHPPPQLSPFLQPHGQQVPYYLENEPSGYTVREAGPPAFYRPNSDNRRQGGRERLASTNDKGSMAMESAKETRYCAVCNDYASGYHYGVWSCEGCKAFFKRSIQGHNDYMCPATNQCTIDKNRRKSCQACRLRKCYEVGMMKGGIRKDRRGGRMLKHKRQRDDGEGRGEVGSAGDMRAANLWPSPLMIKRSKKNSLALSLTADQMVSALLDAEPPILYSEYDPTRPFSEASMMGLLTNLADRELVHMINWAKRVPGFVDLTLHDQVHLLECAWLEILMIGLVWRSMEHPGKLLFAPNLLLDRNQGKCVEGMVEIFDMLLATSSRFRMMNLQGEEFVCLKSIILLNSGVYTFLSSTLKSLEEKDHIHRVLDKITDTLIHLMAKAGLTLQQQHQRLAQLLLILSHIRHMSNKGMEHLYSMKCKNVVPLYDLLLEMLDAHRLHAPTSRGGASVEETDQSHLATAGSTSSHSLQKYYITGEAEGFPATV
Description: MCF-7 cells were adjusted to a concentration of 200,000 cells per mL in RPMI containing 10% charcoal-stripped FBS and 20 mM HEPES. 16 microliters of the cell suspension (3200 cells) was added to each well of a poly-D-lysine 384 well plate, and the cells were incubated overnight to allow the cells to adhere. The following day an eleven point, serial semilog dilution of each compound was added to the cells in 16 μL at a final concentration ranging from 0.3-0.000003 μM. At 4 or 24 hr post compound addition, the cells were fixed (10% formalin in PBS) for 20 minutes. Cells were permeablized in PBS 0.1% Triton and blocked with LICOR blocking buffer (50 μl/well, 90′). The wells were then incubated overnight at 4° C. with SP1 rabbit monoclonal Ab (Thermo Scientific) diluted 1:1000 in LICOR blocking buffer/0.1% Tween-20. Wells which were treated with blocking buffer with Tween but no antibody were used as a background control. Wells were washed with 0.1% Tween-20/PBS and then incubated in goat anti-rabbit IRDye™ 800 CW (LICOR Inc.; 1:10000) and DRAQ5 DNA dye (1:2000 for 2 mM stock) diluted in LICOR blocking buffer containing 0.1% Tween-20 and 0.01% SDS for 60 minutes. Cells were washed (50 μl/well, 5′ each) in 0.1% Tween-20/PBS. Plates were scanned on a LICOR Odyssey infrared imaging system. Integrated intensities in the 800 nm channel and 700 nm channel were measured to determine levels of ER and DNA respectively. Percent ER levels were determined as follows: (Integrated intensity 800 nm sample/integrated intensity 700 nm sample)/(Integrated intensity 800 nm untreated cells/integrated intensity 700 nm untreated cells)×100=% ER levels.

MCF-7 cells = test: MCF7 Viability Assay (Breast Cancer Cell Viability Assay); assay type: cell-based; conditions: 5 days' compound exposure, CellTiter-Glo; for IC50: Homo sapiens, MCF7, 120 h
Description: MCF-7 cells were adjusted to a concentration of 20,000 cells per mL in RPMI containing 10% FBS and 20 mM HEPES. 16 microliters of the cell suspension (320 cells) was added to each well of a 384 well plate, and the cells were incubated overnight to allow the cells to adhere. The following day an eleven point, serial semilog dilution of each compound was added to the cells in 16 μL at a final concentration ranging from 0.3-0.000003 μM. After 5 days' compound exposure, 16 μL of CellTiter-GLo (Promega, Madison Wis.) was added to the cells, and the relative luminescence units (RLUs) of each well were determined. CellTiter-Glo added to 32 μL of medium without cells was used to obtain a background value. The Percent viability of each sample was determined as follows: (RLU sample-RLU background/RLU untreated cells-RLU background)×100=% viability.

Compound	Emax (ER-α)	DC50 (ER-α)	MCF7 Viability Assay Max Response (MCF-7 cells)	IC50 (MCF-7 cells)
CC/C(=C(/c1ccc(/C=C/C(=O)O)cc1)c1ccc(N2CCCCC2)cc1)c1ccccc1 [Example 24, (E)-3-(4-((E)-2-Phenyl-1-(4-(piperidin-1-yl)phenyl)but-1-en-1-yl)phenyl)acrylic acid]	≥ 40%	> 100 nM	++ (++ = a single % value ≧ 40%)	> 100 nM
N#Cc1cc(N2CCOCC2)ccc1/C(=C(/c1ccc(F)cc1Cl)C1CCC1)c1ccc(/C=C/C(=O)O)cc1 [Example 60, (E)-3-(4-((E)-2-(2-Chloro-4-fluorophenyl)-1-(2-cyano-4-morpholinophenyl)-2-cyclobutylvinyl)phenyl)acrylic acid]	≥ 40%	≤ 100 nM	++ (++ = a single % value ≧ 40%)	≤ 100 nM
CC/C(=C(/c1ccc(/C=C/C(=O)O)cc1)c1cccc(-c2nccs2)c1)c1ccccc1 [Example 11, (E)-3-(4-((E)-2-Phenyl-1-(3-(thiazol-2-yl)phenyl)but-1-en-1-yl)phenyl)acrylic acid]	< 40%	> 100 nM	+ (+ = a single % value < 40%)	> 100 nM
N#Cc1ccc(/C(=C(\c2ccc(/C=C/C(=O)O)cc2)c2ccc(N3CCOCC3)cc2)C2CCC2)c(Cl)c1 [Example 45, (E)-3-(4-((E)-2-(2-Chloro-4-cyanophenyl)-2-cyclobutyl-1-(4-morpholinophenyl)vinyl)phenyl)acrylic acid]	≥ 40%	≤ 100 nM	++ (++ = a single % value ≧ 40%)	≤ 100 nM
CC1CCN(c2ccc(/C(=C(/c3ccccc3)C3CCC3)c3ccc(/C=C/C(=O)O)cc3)cc2)CC1 [Example 64, (E)-3-(4-((E)-2-Cyclobutyl-1-(4-(4-methylpiperidin-1-yl)phenyl)-2-phenylvinyl)phenyl)acrylic acid]	≥ 40%	> 100 nM	++ (++ = a single % value ≧ 40%)	> 100 nM
O=C(O)/C=C/c1ccc(/C(=C(\c2ccccc2)C2CCC2)c2ccc(-c3ccon3)cc2)cc1 [Example 27, (E)-3-(4-((E)-2-Cyclobutyl-1-(4-(isoxazol-3-yl)phenyl)-2-phenylvinyl)phenyl)acrylic acid]	≥ 40%	≤ 100 nM	++ (++ = a single % value ≧ 40%)	≤ 100 nM
CC/C(=C(/c1ccc(/C=C/C(=O)O)cc1)c1ccc(-c2cn[nH]c2)cc1)c1ccccc1 [Example 22, (E)-3-(4-((E)-1-(4-(1H-Pyrazol-4-yl)phenyl)-2-phenylbut-1-en-1-yl)phenyl)acrylic acid]	≥ 40%	≤ 100 nM	++ (++ = a single % value ≧ 40%)	≤ 100 nM
CC/C(=C(/c1ccc(/C=C/C(=O)O)cc1)c1cccc(-c2cscn2)c1)c1ccccc1 [Example 12, (E)-3-(4-((E)-2-Phenyl-1-(3-(thiazol-4-yl)phenyl)but-1-en-1-yl)phenyl)acrylic acid]	< 40%	> 100 nM	+ (+ = a single % value < 40%)	> 100 nM
CC/C(=C(/c1ccc(/C=C/C(=O)O)cc1)c1ccc(-c2cscn2)cc1)c1ccccc1 [Example 10, (E)-3-(4-((E)-2-Phenyl-1-(4-(thiazol-4-yl)phenyl)but-1-en-1-yl)phenyl)acrylic acid]	≥ 40%	≤ 100 nM	++ (++ = a single % value ≧ 40%)	> 100 nM
CC/C(=C(/c1ccc(/C=C/C(=O)O)cc1)c1ccc(-c2cnco2)cc1)c1ccccc1 [Example 18, (E)-3-(4-((E)-1-(4-(Oxazol-5-yl)phenyl)-2-phenylbut-1-en-1-yl)phenyl)acrylic acid]	≥ 40%	≤ 100 nM	++ (++ = a single % value ≧ 40%)	≤ 100 nM
Cc1cscc1/C(=C(\c1ccc(/C=C/C(=O)O)cc1)c1ccc(-c2cnn(CCO)c2)cc1)C1CCC1 [Example 68, (E)-3-(4-((E)-2-Cyclobutyl-1-(4-(1-(2-hydroxyethyl)-1H-pyrazol-4-yl)phenyl)-2-(4-methylthiophen-3-yl)vinyl)phenyl)acrylic acid]	≥ 40%	≤ 100 nM	++ (++ = a single % value ≧ 40%)	≤ 100 nM
COc1cc(C)c(/C(=C(\c2ccc(/C=C/C(=O)O)cc2)c2ccc(-c3cn[nH]c3)cc2)C2CCC2)cn1 [Example 61, (E)-3-(4-((E)-1-(4-(1H-Pyrazol-4-yl)phenyl)-2-cyclobutyl-2-(6-methoxy-4-methylpyridin-3-yl)vinyl)phenyl)acrylic acid]	≥ 40%	≤ 100 nM	++ (++ = a single % value ≧ 40%)	≤ 100 nM
O=C(O)/C=C/c1ccc(/C(=C(\c2ncccc2F)C2CCC2)c2ccc(-c3cn[nH]c3)cc2)cc1 [Example 41, (E)-3-(4-((E)-1-(4-(1H-Pyrazol-4-yl)phenyl)-2-cyclobutyl-2-(3-fluoropyridin-2-yl)vinyl)phenyl)acrylic acid]	≥ 40%	≤ 100 nM	++ (++ = a single % value ≧ 40%)	> 100 nM
CC/C(=C(/c1ccc(/C=C/C(=O)O)cc1)c1ccc(-c2cncs2)cc1)c1cscc1C [Example 32, (E)-3-(4-((E)-2-(4-Methylthiophen-3-yl)-1-(4-(thiazol-5-yl)phenyl)but-1-en-1-yl)phenyl)acrylic acid]	≥ 40%	≤ 100 nM	++ (++ = a single % value ≧ 40%)	≤ 100 nM
O=C(O)/C=C/c1ccc(/C(=C(\c2ccc(F)cc2Cl)C2CCC2)c2ccc(-c3cncs3)cc2)cc1 [Example 33, (E)-3-(4-((E)-2-(2-Chloro-4-fluorophenyl)-2-cyclobutyl-1-(4-(thiazol-5-yl)phenyl)vinyl)phenyl)acrylic acid]	≥ 40%	≤ 100 nM	++ (++ = a single % value ≧ 40%)	≤ 100 nM
COc1ccc(/C(=C(\c2ccc(/C=C/C(=O)O)cc2)c2ccc(N3CCOCC3)cc2)C2CCC2)c(C)c1 [Example 47, (E)-3-(4-((E)-2-Cyclobutyl-2-(4-methoxy-2-methylphenyl)-1-(4-morpholinophenyl)vinyl)phenyl)acrylic acid]	≥ 40%	≤ 100 nM	++ (++ = a single % value ≧ 40%)	≤ 100 nM
CC/C(=C(/c1ccc(/C=C/C(=O)O)cc1)c1ccc(N2CCN(C)CC2)cc1)c1ccccc1 [Example 23, (E)-3-(4-((E)-1-(4-(4-Methylpiperazin-1-yl)phenyl)-2-phenylbut-1-en-1-yl)phenyl)acrylic acid]	≥ 40%	≤ 100 nM	++ (++ = a single % value ≧ 40%)	> 100 nM
CC/C(=C(/c1ccc(/C=C/C(=O)O)cc1)c1ccc(-c2cnsc2)cc1)c1ccccc1 [Example 15, (E)-3-(4-((E)-1-(4-(Isothiazol-4-yl)phenyl)-2-phenylbut-1-en-1-yl)phenyl)acrylic acid]	≥ 40%	≤ 100 nM	++ (++ = a single % value ≧ 40%)	> 100 nM
